Assay results taken from ChEMBL document CHEMBL1201862, “PubChem BioAssay data set” (2004).
Calls of active or inactive are those of the source.

Legend:
[1] = tested on: Streptococcus sp. 'group A'; assay: growth inhibition of control SK(-) GAS strain, dose response, counter-screen for streptokinase expression inhibitor project, luminescence, kanamycin, BacTiterGlo, confirmation (AID 1900); format: functional, organism-based
Streptococcus = assay: Group A Streptococcus viability loss, dose response, counter-screen for streptokinase expression inhibitor project, luminescence, BacTiterGlo (AID 1915); format: functional, organism-based;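 also: potency for reduction of bacterial viability or growth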
HEK293 [2] = assay: HEK cell cytotoxicity by LDH release, dose response, cytotoxicity control for IDE activator project, fluorescence, HEK cells (AID 588440); format: functional, cell-based; details: Homo sapiens;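 also: cytotoxicity by LDH release measuring loss of membrane integrity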
[3] = target: G-protein coupled receptor 55 (Homo sapiens, UniProt Q9Y2T6); assay: GPR55 agonists via beta-arrestin recruitment, primary screen, imaging, U2OS cells, beta-arrestin-GFP redistribution (AID 1961); format: functional
Insulin-degrading enzyme [4] = target: T1, Insulin-degrading enzyme (Homo sapiens, UniProt P14735); assay: activators of recombinant IDE enzyme, dose response, counter-screen for IDE activator project, biochemical, fluorescence polarization (AID 588681)
T1 sequence (P14735 whole entry): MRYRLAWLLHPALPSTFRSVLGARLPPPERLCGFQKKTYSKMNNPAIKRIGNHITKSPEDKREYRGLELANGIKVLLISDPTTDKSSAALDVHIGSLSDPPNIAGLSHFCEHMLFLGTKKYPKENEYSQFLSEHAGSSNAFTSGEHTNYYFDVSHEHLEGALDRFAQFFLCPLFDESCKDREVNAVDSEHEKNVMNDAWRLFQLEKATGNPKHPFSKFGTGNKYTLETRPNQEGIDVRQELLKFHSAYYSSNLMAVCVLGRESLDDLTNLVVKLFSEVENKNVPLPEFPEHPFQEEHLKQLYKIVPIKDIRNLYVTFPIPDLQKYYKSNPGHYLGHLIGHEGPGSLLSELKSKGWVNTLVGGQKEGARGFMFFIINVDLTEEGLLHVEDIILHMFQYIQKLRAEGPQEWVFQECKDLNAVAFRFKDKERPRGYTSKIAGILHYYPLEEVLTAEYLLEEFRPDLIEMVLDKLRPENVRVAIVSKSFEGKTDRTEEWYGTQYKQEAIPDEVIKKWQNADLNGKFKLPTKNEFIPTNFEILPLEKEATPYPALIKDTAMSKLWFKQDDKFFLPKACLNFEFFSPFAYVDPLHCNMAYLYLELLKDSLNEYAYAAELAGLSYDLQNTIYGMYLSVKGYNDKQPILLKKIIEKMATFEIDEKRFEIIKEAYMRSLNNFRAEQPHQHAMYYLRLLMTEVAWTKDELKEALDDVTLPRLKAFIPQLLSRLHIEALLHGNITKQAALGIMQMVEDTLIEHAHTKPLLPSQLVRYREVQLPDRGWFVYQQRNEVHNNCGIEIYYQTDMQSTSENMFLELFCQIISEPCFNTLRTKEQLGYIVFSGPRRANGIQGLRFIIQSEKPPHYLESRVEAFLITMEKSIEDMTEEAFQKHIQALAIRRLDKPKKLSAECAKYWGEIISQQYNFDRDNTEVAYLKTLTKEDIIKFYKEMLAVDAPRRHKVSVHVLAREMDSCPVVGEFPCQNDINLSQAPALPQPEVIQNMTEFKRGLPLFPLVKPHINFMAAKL

HEK293 [5] = assay: optical interference in Abeta FP readout, dose response, artefact control for IDE activator project, biochemical, fluorescence polarization (AID 588442); format: functional, cell-based; details: Homo sapiens
[6] = Luminescence Cell-Based Dose Retest to Confirm Inhibitors of Cancer Stem Cells. [Related pubchem assays (depositor defined):AID2717, AID2721]; format: functional; details: Homo sapiens
[7] = target: Disintegrin and metalloproteinase domain-containing protein 17 (Homo sapiens, UniProt P78536); assay: ADAM17 protease inhibitors, dose response, counter-screen for ADAM10 exosite inhibitor project, biochemical, quenched FRET substrate (AID 743253)
Streptokinase A = target: T2, Streptokinase A (Streptococcus pyogenes serotype M1, UniProt P10520); assay: S. pyogenes streptokinase expression inhibitors, potency, dose response, plasminogen activation absorbance, OD405 (AID 1914); format: functional, Streptococcus pyogenes M1 GAS;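 also: secreted streptokinase activity via plasminogen activation per viability signal from cell pellet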
T2 sequence (P10520 whole entry): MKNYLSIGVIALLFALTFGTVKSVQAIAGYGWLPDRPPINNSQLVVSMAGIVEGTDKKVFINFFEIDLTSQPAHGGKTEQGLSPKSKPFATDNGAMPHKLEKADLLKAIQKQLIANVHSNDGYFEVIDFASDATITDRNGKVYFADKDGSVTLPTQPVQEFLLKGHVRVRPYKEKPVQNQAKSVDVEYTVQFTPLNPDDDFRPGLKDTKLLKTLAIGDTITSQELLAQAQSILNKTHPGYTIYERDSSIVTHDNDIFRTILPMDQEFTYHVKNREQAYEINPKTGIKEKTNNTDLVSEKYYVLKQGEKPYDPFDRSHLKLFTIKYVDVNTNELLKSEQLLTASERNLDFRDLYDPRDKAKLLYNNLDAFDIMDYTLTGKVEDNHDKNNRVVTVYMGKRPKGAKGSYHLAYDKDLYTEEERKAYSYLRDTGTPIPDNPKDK

Insulin-degrading enzyme [8] = target: T1, Insulin-degrading enzyme; assay: activators of endogenous IDE in HEK cells, dose response, cell-based, fluorescence polarization (AID 588439); format: functional
[9] = target: T3, High affinity choline transporter 1 (Homo sapiens, UniProt Q9GZV3); assay: CHT inhibitors, dose response, cell-based, 10-point CRC, membrane potential dye (AID 588401); format: functional;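 also: membrane potential dye fluorescence of choline-evoked depolarization via CHT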
T3 sequence (Q9GZV3 whole entry): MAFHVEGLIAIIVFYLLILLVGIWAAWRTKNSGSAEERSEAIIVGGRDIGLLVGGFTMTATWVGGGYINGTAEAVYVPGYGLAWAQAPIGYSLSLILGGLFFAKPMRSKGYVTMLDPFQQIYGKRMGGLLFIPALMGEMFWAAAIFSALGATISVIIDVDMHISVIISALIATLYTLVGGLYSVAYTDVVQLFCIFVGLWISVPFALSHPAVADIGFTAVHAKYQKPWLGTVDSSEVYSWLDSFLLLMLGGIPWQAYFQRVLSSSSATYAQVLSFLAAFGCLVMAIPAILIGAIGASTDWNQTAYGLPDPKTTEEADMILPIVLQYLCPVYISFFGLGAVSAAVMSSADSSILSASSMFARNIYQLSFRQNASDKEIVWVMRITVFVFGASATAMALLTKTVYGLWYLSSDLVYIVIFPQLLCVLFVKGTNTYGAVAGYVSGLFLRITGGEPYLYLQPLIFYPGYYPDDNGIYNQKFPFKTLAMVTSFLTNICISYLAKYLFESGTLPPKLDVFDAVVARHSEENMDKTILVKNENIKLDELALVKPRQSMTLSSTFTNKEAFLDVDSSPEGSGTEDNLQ

[10] = target: T3, High affinity choline transporter 1; assay: CHT inhibitors, dose response, cell-based, 5-point CRC, membrane potential dye (AID 504840); format: functional
[11] = target: T4, Polyadenylate-binding protein 1 (Homo sapiens, UniProt P11940); assay: PABP1 MLLE–PAM2 interaction inhibitors, dose response, miRNA deadenylation inhibitor project, biochemical, fluorescence polarization, Cy5-PAM2 peptide, secondary (AID 602260); format: functional; details: read-out: IC50_Mean
Coagulation factor XII = target: T5, Coagulation factor XII (Homo sapiens, UniProt P00748); format: functional;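 also: activated factor XIIa alpha cleaving a fluorogenic AMC peptide substrate; inhibitor potency from loss of enzyme activity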
T5 sequence (P00748 whole entry): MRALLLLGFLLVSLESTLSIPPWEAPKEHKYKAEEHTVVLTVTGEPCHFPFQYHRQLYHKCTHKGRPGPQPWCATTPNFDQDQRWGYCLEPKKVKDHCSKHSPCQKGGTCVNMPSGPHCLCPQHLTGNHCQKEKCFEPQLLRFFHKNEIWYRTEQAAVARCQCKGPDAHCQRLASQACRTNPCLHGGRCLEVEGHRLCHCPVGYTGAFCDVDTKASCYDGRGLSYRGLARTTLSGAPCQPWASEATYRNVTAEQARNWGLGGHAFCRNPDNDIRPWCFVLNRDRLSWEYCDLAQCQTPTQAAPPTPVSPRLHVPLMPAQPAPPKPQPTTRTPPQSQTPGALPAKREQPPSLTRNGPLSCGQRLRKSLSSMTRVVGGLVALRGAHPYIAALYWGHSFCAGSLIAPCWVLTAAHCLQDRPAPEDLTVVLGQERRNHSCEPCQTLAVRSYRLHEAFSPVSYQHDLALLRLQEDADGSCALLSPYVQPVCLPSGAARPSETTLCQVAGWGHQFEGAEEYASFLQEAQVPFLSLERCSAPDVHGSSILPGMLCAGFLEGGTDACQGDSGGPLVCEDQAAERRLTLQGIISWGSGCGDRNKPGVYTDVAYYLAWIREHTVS

[12] = target: Latent membrane protein 1 (Human herpesvirus 4 (strain B95-8), UniProt P03230); assay: TES1-eGFP NF-kB reporter inhibition versus Tet-On dsRED, dose response, selectivity assay for LMP1 NF-kB inhibitor project, imaging, HEK293T, dual-color eGFP/dsRED, cherry-picks (AID 588398); format: functional, cell-based
[13] = target: T4, Polyadenylate-binding protein 1; assay: PABP1 MLLE–PAM2 binding inhibitor potency, dose response, biochemical, fluorescence polarization, FITC-PAM2 peptide (AID 602259); format: functional; details: read-out: IC50_Mean
[14] = cytotoxicity toward NIH3T3 fibroblasts, dose response, counter-screen, cell-based, ATP luminescence, mouse fibroblasts (AID 2010); format: functional;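 also: cells exposed to compound for about 90 hours before reading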
[15] = inhibitors of intracellular T. cruzi replication, confirmation, NIH3T3 host cells, beta-gal luminescence (AID 2044); format: functional, cell-based;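 also: intracellular parasites grown in NIH/3T3 mouse fibroblasts as host cells; luminescent beta-galactosidase reporter signal from transgenic T. cruzi replicating inside host cells; inhibitors lower the luminescence signal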
[16] = target: T6, Rac GTPase-activating protein 1 (Homo sapiens, UniProt Q9H0H5); assay: MgcRacGAP GTPase-activating activity inhibitors, confirmation, biochemical, ADP Hunter fluorescence, primary and confirmatory (AID 624330); format: functional
T6 sequence (Q9H0H5 whole entry): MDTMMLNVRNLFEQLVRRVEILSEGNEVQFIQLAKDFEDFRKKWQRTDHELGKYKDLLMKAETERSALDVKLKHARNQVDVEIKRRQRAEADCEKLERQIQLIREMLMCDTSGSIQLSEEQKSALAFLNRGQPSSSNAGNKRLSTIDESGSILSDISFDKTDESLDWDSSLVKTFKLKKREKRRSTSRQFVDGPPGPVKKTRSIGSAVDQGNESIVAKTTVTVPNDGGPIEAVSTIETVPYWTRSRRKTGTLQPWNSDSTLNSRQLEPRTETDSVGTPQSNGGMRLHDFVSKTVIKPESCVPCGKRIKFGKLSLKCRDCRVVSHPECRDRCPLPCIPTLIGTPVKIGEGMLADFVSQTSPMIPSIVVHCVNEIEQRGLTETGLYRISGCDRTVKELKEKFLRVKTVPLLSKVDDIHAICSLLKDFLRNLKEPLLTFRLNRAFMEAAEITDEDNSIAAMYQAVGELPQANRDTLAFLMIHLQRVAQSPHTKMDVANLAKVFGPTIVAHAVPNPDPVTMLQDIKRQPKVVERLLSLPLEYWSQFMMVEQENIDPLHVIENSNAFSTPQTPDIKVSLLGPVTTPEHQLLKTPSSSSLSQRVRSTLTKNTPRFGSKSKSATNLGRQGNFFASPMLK

Large T antigen = Large T antigen (Simian virus 40, UniProt P03070); format: functional, Betapolyomavirus macacae;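 also: Confirmatory-stage PubChem screen for compounds that inhibit SV40 T antigen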
cells = format: functional
[17] = target: Mitogen-activated protein kinase 10 (Homo sapiens, UniProt P53779); assay: Dose response biochemical screening assay for inhibitors of c-Jun N-Terminal Kinase 3 (JNK3). [Related pubchem assays: 746 ]
[18] = target: Ras and Rab interactor 1/Tyrosine-protein kinase ABL1 (Homo sapiens, UniProt P00519+Q13671); format: functional;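 also: biochemical TR-FRET dose-response test measuring inhibition of binding between Rin1 and Abl proteins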
Cytochrome P450 3A4 = Cytochrome P450 3A4 (Homo sapiens, UniProt P08684);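 also: CYP3A4 tested as one member of a cytochrome P450 panel screen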
Cytochrome P450 2C9 = Cytochrome P450 2C9 (Homo sapiens, UniProt P11712)
Cytochrome P450 2D6 = Cytochrome P450 2D6 (Homo sapiens, UniProt P10635);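 also: CYP2D6 member of a cytochrome P450 panel assay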
Chain of Cytochrome P450 2D6 (P10635 whole entry): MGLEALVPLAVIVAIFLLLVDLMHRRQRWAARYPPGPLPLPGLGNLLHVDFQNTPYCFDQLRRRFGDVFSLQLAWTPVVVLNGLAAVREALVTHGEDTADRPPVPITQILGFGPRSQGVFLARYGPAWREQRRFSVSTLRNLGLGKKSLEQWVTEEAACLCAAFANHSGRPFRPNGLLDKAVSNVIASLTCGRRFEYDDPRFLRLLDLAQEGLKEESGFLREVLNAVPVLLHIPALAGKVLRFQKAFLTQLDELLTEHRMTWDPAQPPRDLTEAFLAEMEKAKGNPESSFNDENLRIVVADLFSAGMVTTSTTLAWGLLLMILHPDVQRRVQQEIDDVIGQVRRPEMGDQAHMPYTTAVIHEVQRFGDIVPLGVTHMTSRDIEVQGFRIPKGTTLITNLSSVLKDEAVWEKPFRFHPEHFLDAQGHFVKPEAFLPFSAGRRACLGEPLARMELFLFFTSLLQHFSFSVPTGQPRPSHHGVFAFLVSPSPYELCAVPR

T4 sequence (P11940 whole entry): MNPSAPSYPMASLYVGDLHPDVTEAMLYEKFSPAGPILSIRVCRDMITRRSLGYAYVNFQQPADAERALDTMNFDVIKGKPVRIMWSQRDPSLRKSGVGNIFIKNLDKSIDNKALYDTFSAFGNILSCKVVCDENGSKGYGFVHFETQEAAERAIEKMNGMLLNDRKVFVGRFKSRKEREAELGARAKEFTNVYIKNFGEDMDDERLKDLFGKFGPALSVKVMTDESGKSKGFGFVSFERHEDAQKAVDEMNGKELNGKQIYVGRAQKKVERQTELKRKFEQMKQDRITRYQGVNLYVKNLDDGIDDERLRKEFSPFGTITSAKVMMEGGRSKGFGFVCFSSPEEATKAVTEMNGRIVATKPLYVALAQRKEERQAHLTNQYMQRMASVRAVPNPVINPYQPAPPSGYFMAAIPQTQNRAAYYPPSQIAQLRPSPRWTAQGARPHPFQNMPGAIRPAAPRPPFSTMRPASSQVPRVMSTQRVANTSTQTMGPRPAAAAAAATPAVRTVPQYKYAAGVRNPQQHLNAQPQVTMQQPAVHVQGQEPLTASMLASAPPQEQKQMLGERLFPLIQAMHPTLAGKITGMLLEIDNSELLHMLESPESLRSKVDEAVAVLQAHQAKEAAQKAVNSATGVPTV
Chain of Cytochrome P450 3A4 (P08684 whole entry): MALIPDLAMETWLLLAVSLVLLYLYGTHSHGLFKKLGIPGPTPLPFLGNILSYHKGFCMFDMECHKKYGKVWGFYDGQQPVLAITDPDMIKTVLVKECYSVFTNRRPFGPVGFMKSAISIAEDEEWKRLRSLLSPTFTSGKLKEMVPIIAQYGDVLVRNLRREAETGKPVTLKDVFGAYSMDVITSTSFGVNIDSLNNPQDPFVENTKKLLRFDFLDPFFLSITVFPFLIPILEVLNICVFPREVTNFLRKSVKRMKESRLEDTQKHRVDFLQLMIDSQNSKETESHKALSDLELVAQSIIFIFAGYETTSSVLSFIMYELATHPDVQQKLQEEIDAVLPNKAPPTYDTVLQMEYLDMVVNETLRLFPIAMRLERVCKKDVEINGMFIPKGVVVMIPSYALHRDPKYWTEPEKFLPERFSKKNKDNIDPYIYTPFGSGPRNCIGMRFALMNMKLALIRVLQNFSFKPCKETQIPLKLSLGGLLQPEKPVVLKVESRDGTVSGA
Chain of G-protein coupled receptor 55 (Q9Y2T6 whole entry): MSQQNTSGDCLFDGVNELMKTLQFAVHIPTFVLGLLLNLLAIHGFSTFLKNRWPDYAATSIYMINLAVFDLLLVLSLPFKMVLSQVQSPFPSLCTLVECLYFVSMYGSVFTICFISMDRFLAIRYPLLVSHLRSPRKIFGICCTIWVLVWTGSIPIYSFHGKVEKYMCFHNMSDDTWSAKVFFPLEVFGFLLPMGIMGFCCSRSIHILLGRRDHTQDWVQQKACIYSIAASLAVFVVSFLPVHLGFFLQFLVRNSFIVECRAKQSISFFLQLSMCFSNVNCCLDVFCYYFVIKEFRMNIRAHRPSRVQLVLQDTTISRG
Chain of Mitogen-activated protein kinase 10 (P53779 whole entry): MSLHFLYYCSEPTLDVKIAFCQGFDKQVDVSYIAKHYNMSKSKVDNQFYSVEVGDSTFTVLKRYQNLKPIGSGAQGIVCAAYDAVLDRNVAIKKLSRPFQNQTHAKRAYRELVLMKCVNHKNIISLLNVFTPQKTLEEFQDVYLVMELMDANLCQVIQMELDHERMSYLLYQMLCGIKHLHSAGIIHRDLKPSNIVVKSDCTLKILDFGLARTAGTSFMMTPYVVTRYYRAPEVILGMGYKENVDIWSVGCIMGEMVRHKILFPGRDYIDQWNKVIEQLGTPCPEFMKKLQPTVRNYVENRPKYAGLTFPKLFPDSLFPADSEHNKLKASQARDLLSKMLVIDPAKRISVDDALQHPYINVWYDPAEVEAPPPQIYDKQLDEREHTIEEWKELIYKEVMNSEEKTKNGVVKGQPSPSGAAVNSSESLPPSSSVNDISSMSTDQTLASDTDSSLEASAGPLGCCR
Chain of Disintegrin and metalloproteinase domain-containing protein 17 (P78536 whole entry, the tested form may be a part): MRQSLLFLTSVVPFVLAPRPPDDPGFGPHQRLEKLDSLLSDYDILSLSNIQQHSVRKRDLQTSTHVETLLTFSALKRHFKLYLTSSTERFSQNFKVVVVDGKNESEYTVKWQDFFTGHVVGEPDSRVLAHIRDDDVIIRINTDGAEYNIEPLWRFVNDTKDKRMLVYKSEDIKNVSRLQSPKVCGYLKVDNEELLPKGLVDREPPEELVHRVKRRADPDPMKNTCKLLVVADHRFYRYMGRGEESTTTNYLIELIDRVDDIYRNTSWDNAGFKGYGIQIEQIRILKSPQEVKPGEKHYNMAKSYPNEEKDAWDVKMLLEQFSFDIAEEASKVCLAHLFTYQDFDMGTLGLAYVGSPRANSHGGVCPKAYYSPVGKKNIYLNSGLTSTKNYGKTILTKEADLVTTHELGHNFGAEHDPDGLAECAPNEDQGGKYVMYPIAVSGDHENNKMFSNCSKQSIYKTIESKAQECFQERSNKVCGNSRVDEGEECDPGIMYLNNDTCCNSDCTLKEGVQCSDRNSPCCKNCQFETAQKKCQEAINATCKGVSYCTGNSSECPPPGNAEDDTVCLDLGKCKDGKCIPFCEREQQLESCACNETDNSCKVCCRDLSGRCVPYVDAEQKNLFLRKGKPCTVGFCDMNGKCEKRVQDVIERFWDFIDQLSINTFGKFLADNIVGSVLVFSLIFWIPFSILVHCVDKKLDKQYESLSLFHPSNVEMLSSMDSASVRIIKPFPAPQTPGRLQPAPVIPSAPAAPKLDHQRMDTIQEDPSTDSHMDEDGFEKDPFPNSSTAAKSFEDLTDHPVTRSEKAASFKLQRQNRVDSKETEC
Chain of Cytochrome P450 2C9 (P11712 whole entry): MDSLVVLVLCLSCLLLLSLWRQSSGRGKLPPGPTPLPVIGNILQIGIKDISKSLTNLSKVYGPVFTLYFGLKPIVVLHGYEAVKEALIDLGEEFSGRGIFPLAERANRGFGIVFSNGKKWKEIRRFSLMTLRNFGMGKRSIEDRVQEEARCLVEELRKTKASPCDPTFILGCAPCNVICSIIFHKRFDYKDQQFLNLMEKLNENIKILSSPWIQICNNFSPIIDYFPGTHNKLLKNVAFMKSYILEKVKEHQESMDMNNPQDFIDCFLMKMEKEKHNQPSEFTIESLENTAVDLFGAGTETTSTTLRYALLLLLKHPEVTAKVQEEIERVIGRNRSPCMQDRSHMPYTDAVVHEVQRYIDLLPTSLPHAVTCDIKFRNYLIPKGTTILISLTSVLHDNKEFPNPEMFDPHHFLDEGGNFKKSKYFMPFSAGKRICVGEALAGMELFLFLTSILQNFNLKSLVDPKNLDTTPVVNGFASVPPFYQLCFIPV
Chain of Latent membrane protein 1 (P03230 whole entry): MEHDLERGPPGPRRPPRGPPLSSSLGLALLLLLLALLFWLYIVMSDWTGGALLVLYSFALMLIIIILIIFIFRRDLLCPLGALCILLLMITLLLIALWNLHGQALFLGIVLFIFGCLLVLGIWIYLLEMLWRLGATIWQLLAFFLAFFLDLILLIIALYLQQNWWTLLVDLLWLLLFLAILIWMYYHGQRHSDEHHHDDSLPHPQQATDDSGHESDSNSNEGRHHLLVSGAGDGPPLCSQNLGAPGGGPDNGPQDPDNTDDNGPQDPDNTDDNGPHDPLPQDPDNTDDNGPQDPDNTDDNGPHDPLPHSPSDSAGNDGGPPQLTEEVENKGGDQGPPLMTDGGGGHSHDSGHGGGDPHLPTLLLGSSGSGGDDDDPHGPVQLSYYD
Chain of Large T antigen (P03070 whole entry): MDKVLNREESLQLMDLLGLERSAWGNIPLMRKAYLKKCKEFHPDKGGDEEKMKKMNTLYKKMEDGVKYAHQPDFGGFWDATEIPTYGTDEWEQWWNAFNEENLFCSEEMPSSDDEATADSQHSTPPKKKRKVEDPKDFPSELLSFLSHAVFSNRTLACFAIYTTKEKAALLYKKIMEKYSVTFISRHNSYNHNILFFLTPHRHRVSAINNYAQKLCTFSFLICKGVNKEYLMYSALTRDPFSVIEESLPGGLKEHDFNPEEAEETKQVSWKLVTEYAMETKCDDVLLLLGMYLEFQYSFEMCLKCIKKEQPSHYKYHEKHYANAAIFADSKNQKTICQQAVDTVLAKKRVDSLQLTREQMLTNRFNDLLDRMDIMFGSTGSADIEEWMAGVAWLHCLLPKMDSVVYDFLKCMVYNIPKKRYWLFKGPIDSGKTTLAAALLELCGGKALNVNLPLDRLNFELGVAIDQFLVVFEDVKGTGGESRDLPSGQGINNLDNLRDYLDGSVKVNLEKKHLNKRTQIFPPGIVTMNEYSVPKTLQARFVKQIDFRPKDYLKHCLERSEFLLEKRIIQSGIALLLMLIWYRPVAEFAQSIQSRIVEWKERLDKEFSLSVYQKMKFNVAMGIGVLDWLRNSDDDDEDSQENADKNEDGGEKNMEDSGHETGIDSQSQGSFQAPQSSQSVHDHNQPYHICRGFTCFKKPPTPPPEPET

C=C(C)COc1ccc(-c2n[nH]cc2Oc2ccc(OC)cc2)c(O)c1
EC50 [1]: 6.87 µM (active)
EC50 (Streptococcus): 25.8 µM (active)
IC50 (HEK293 [2]): 31.4 µM (inactive)
EC50 [3]: > 32 µM (inactive)
EC50 (Insulin-degrading enzyme [4]): > 54.7 µM (inactive)
EC50 (HEK293 [5]): > 54.7 µM (inactive)
AC50 [6]: 5.47 µM (active)
IC50 [7]: 12 µM (inactive)
EC50 (Streptokinase A): 37.4 µM (active)
EC50 (Insulin-degrading enzyme [8]): 20.7 µM (inactive)

Cc1cc(NS(=O)(=O)c2ccc(NC(=O)C(C)Oc3cccc(C)c3C)cc2)nc(C)n1 (configuration not stated)
IC50 [9]: 7.23 µM (active)
IC50 [10]: 10 µM (active)

C=CCn1c(O)c(N=NC(S)=Nc2ccccc2F)c2cc(S(=O)(=O)N3CCOCC3)ccc21
IC50 [11]: > 66 µM (inactive)
IC50 (Coagulation factor XII): > 50 µM (inconclusive)
AC50 [12]: 38.3 µM (active)
IC50 [13]: > 66 µM (inactive)
EC50 [14]: 2.84 µM (active)
EC50 [15]: 0.495 µM (active)

C/C(CC(=O)Nc1ccc(N(C)C)cc1)=N\NC(=O)c1ccncc1
IC50 [16]: 56.8 µM (active)
IC50 (Large T antigen): 13.7 µM (active)
IC50 (HEK293 [2]): > 89.2 µM (inactive)
EC50 (Insulin-degrading enzyme [4]): 26 µM (inactive)
EC50 (HEK293 [5]): > 55.9 µM (inactive)
EC50 (Insulin-degrading enzyme [8]): > 54.7 µM (inactive)
IC50 (cells): 0.31 µM (active)

O=C(Nc1cccnc1)c1ccc(COc2ccccc2Br)o1
IC50 [9]: 1.5 µM (active)
IC50 [10]: 3.28 µM (active)
IC50 [17]: > 93.1 µM (not active)

COCCNC(=O)c1cc2c3ccccc3n(C)c2s1
IC50 [18]: 14.6 µM (inactive)
AC50 (Cytochrome P450 3A4): 28.2 µM (inconclusive)
AC50 (Cytochrome P450 2C9): inconclusive
AC50 (Cytochrome P450 2D6): inconclusive
